Reference: patent publication US20070167492A1, “Molluscicidal agents” (priority 2003, published 2007)

Columns and labels:
[1] = tested on: Winter wheat (Kampa race) seeds; experiment: Seed germination test of treated winter wheat seeds (rolled in paper); type: in vivo; settings: 3x50 seeds, 6 days at 22° C.
In short: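 Seeds were disinfected with fludioxonil-containing Beret Gold (2 ml per kg seed) and coated with Sepiret® for formulations unsuitable for coating. Germination of 3×50 seeds rolled in paper was scored after 6 days at continuous 22° C. under a 16 hours light regime.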

[2] = tested on: Deroceras reticulatum (grey field slug); experiment: Example 1: pot test, treated winter wheat seed with 5 adult slugs per pot, 14 days; type: in vivo
In short: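 Fludioxonil-disinfected winter wheat seed (Kampa, 40 per pot) sown on quartz sand over potting soil with 5 adult slugs per pot; ±15° C., ±90% RH, 12 h light/12 h dark, 4 replicates. Damaged seeds, plants, dead slugs and fecal pellets counted up to day 14; F-tests and Student-tests.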

[3] = 2 ml formulated per kg seed, 2 days after sowing
[4] = 2 ml formulated per kg seed, 3 days after sowing
[5] = 2 ml formulated per kg seed, 7 days after sowing
[6] = 2 ml formulated per kg seed, 10 days after sowing
[7] = 2 ml formulated per kg seed, 14 days after sowing
[8] = 4 ml formulated per kg seed, 2 days after sowing
[9] = 4 ml formulated per kg seed, 3 days after sowing
[10] = 4 ml formulated per kg seed, 7 days after sowing
[11] = 4 ml formulated per kg seed, 10 days after sowing
[12] = 4 ml formulated per kg seed, 14 days after sowing
[13] = 8 ml formulated per kg seed, 2 days after sowing
[14] = 8 ml formulated per kg seed, 3 days after sowing
[15] = 8 ml formulated per kg seed, 7 days after sowing
[16] = 8 ml formulated per kg seed, 10 days after sowing
[17] = 8 ml formulated per kg seed, 14 days after sowing
[18] = 12 ml formulated per kg seed, 2 days after sowing
[19] = 12 ml formulated per kg seed, 3 days after sowing
[20] = 12 ml formulated per kg seed, 7 days after sowing
[21] = 12 ml formulated per kg seed, 10 days after sowing
[22] = 12 ml formulated per kg seed, 14 days after sowing

O=[N+]([O-])NC1=NCCN1Cc1ccc(Cl)nc1 [imidacloprid]
Percentage germinated ([1]; 2 ml formulated per kg seed): 78% | Percentage germinated ([1]; 4 ml formulated per kg seed): 89% | Percentage germinated ([1]; 8 ml formulated per kg seed): 71% | Percentage germinated ([1]; 12 ml formulated per kg seed): 77% | number of utilizable plants after 14 days ([2]; 2 ml formulated per kg seed): 2.5 | percentage of damaged seeds after 14 days ([2]; 2 ml formulated per kg seed): 86% | Mean number of damaged seeds per pot [2, 3]: 2.8 | Mean number of dead slugs per pot [2, 3]: 0 | Mean number fecal pellets per pot [2, 4]: 33 | Mean number of damaged seeds per pot [2, 4]: 10.3 | Mean number of dead slugs per pot [2, 4]: 0 | Mean number of plants present per pot [2, 4]: 3.8 | Mean number fecal pellets per pot [2, 5]: 118 | Mean number of damaged seeds per pot [2, 5]: 33.0 | Mean number of dead slugs per pot [2, 5]: 0 | Mean number of plants present per pot [2, 5]: 2.8 | Mean number fecal pellets per pot [2, 6]: 109 | Mean number of damaged seeds per pot [2, 6]: 33.5 | Mean number of dead slugs per pot [2, 6]: 0.3 | Mean number of plants present per pot [2, 6]: 4.5 | Mean number fecal pellets per pot [2, 7]: 116 | Mean number of damaged seeds per pot [2, 7]: 34.3 | Mean number of dead slugs per pot [2, 7]: 0.5 | Mean number of plants present per pot [2, 7]: 3.3 | number of utilizable plants after 14 days ([2]; 4 ml formulated per kg seed): 0.8 | percentage of damaged seeds after 14 days ([2]; 4 ml formulated per kg seed): 81% | Mean number of damaged seeds per pot [2, 8]: 1.0 | Mean number of dead slugs per pot [2, 8]: 0 | Mean number fecal pellets per pot [2, 9]: 21 | Mean number of damaged seeds per pot [2, 9]: 7.3 | Mean number of dead slugs per pot [2, 9]: 0.3 | Mean number of plants present per pot [2, 9]: 2.3 | Mean number fecal pellets per pot [2, 10]: 108 | Mean number of damaged seeds per pot [2, 10]: 32.8 | Mean number of dead slugs per pot [2, 10]: 0.3 | Mean number of plants present per pot [2, 10]: 1.3 | Mean number fecal pellets per pot [2, 11]: 118 | Mean number of damaged seeds per pot [2, 11]: 31.5 | Mean number of dead slugs per pot [2, 11]: 0.3 | Mean number of plants present per pot [2, 11]: 4.0 | Mean number fecal pellets per pot [2, 12]: 126 | Mean number of damaged seeds per pot [2, 12]: 32.3 | Mean number of dead slugs per pot [2, 12]: 0.3 | Mean number of plants present per pot [2, 12]: 3.5 | number of utilizable plants after 14 days ([2]; 8 ml formulated per kg seed): 7.3 | percentage of damaged seeds after 14 days ([2]; 8 ml formulated per kg seed): 59% | Mean number of damaged seeds per pot [2, 13]: 1.3 | Mean number of dead slugs per pot [2, 13]: 0 | Mean number fecal pellets per pot [2, 14]: 11 | Mean number of damaged seeds per pot [2, 14]: 4.5 | Mean number of dead slugs per pot [2, 14]: 0 | Mean number of plants present per pot [2, 14]: 13.8 | Mean number fecal pellets per pot [2, 15]: 48 | Mean number of damaged seeds per pot [2, 15]: 23.8 | Mean number of dead slugs per pot [2, 15]: 0 | Mean number of plants present per pot [2, 15]: 9.0 | Mean number fecal pellets per pot [2, 16]: 65 | Mean number of damaged seeds per pot [2, 16]: 23.5 | Mean number of dead slugs per pot [2, 16]: 0.3 | Mean number of plants present per pot [2, 16]: 9.5 | Mean number fecal pellets per pot [2, 17]: 75 | Mean number of damaged seeds per pot [2, 17]: 23.8 | Mean number of dead slugs per pot [2, 17]: 0.5 | Mean number of plants present per pot [2, 17]: 10.5 | number of utilizable plants after 14 days ([2]; 12 ml formulated per kg seed): 14.3 | percentage of damaged seeds after 14 days ([2]; 12 ml formulated per kg seed): 22% | Mean number of damaged seeds per pot [2, 18]: 0.0 | Mean number of dead slugs per pot [2, 18]: 0 | Mean number fecal pellets per pot [2, 19]: 9 | Mean number of damaged seeds per pot [2, 19]: 4.3 | Mean number of dead slugs per pot [2, 19]: 1.5 | Mean number of plants present per pot [2, 19]: 11.8 | Mean number fecal pellets per pot [2, 20]: 26 | Mean number of damaged seeds per pot [2, 20]: 11.5 | Mean number of dead slugs per pot [2, 20]: 1.5 | Mean number of plants present per pot [2, 20]: 16.3 | Mean number fecal pellets per pot [2, 21]: 35 | Mean number of damaged seeds per pot [2, 21]: 7.8 | Mean number of dead slugs per pot [2, 21]: 1.5 | Mean number of plants present per pot [2, 21]: 19.0 | Mean number fecal pellets per pot [2, 22]: 38 | Mean number of damaged seeds per pot [2, 22]: 8.8 | Mean number of dead slugs per pot [2, 22]: 1.5 | Mean number of plants present per pot [2, 22]: 20 | damaged seeds relative to untreated seed ([2]; Example 1, 2 ml/kg): no controlling effect | damaged seeds relative to untreated seed ([2]; Example 1, 4 ml/kg): controlling effect only after 2 and 3 days | damaged seeds relative to untreated seed ([2]; Example 1, 8 ml/kg, after 3, 7 and 14 days): significant controlling effect | damaged seeds relative to the untreated pots ([2]; Example 1, 12 ml per kg of seed, at each observation): significantly less damaged seeds | fecal pellets relative to the untreated seed ([2]; Example 1, 12 ml per kg of seed, each observation): significantly less fecal pellets | dead slugs relative to the untreated seed ([2]; Example 1, 12 ml/kg, 3 and 7 days after the start): significantly more dead slugs | plants present relative to the untreated seed ([2]; Example 1, 12 ml/kg, at each observation): significantly more plants present | slug controlling effect (conclusion) ([2]; Example 1, dosage of 12 ml per kg of seed): good slug controlling agent
